The target of one assay is T1, human B1 receptor (Homo sapiens, UniProt P46663).
T1 construct: host or cells: CHO-K1
T1 sequence (P46663 1-353): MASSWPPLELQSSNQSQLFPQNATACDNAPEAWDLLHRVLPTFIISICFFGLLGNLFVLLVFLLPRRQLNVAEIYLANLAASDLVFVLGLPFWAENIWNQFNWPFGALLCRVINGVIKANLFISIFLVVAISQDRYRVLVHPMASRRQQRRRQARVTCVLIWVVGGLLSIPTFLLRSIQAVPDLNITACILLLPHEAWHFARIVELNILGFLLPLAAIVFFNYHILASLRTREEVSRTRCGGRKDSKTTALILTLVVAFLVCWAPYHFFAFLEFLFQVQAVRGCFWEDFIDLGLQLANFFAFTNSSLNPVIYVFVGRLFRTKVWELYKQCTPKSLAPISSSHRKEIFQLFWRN
The assay can be described thus: Calcium flux assay (FLIPR) with recombinant CHO-K1 cells expressing human B1 receptor. Type of assay: cell-based. The following applies: agonist Lys-(Des-Arg)-Bradykinin. The method, then: The potency to inhibit the Bradykinin B1 receptors was determined for the example compounds of this invention in a cell-based fluorescent calcium-mobilisation assay. The assay measures the ability of example compounds to inhibit Bradykinin B1 receptor agonist-induced increase of intracellular free Ca^2+ in the cell line expressing B1 receptor. Specifically, calcium indicator—loaded cells are pre-incubated in the absence or presence of different concentrations of example compounds followed by the stimulation with a selective B1 receptor agonist peptide. The change of the intracellular Ca^2+ concentration is monitored with a fluorescent plate reader FLIPR (Molecular Devices).
Calcium flux Assay (FLIPR) with recombinant cells for Bradykinin B1 receptor antagonist, either in the presence (hB1 IC50) or absence (hB1 free IC50) of 0.1% BSA in assay buffer
CHO-K1 cell line expressing human B1 receptor was purchased from Euroscreen (Gosselies, Belgium, with reference name hB1-D1). The cells were grown in Nutrient Mixture Ham's F12 (Sigma) containing 10% Foetal bovine serum (Sigma) and 400 μg/mL G418 (Sigma), 5 μg/mL puromycin (Sigma).
For the calcium flux assay, 80% confluent cells were detached from the culture vessels with Versene (Gibco), and seeded into 384-well plates (Cell binding Surface; Corning, N.Y.; #3683) at a density of 15,000 cells per well. Cells were seeded in a volume of 50 μL in medium without antibiotics and incubated overnight in a humidified atmosphere with 5% CO2 at 37° C. […] The calcium indicator loaded cells were incubated at 37° C. for 2 hrs. Extracellular dye was then removed and each well was filled with 45 μL of assay buffer. Cell plates were kept in dark until used. Example compounds were assayed at 8 concentrations in triplicate. Serial 10-fold dilutions in 100% DMSO were made at a 100-times higher concentration than the final concentration, and then diluted 1:10 in assay buffer. 5 μL of each diluted compound was added to the well of cell plates (yielding final concentration with 1% DMSO), and incubated for 30 min at 28° C. before the addition of B1 receptor agonist on the FLIPR instrument.
Agonist plates contained the agonist Lys-(Des-Arg)-Bradykinin (Bachem, Brackley) at 3.5×EC90 in assay buffer with 1% DMSO. The addition of agonist 20 μl per well to the assay plate was carried out on the FLIPR instrument while continuously monitoring Ca^2+-dependent fluorescence at 538 nm. A peptide antagonist Lys-(Des-Arg-Leu)-Bradykinin (Bachem, Brackley) at 20 µM was used to determine the full inhibition as control.
Peak fluorescence was used to determine the response to agonist obtained at each concentration of example compound by the following equation:
% Response=100*(RFU(example compound)−RFU(control)/(RFU(DMSO)−RFU(control)) • Control=full inhibition by the peptide antagonist Lys-(Des-Arg-Leu)-Bradykinin at 20 μM
The response values were plotted against the logarithm of the compound concentrations. The compounds were tested in triplicates per plate and mean values were plotted in Excel XLfit to determine IC50 values, percentage of maximal inhibition and the Hill slopes.
In general terms: A change in cytosolic calcium serves as a functional read-out for many receptors and channels.

The target in assay [1] is T2, native human B1 receptors (Homo sapiens, UniProt P46663).
T2 construct: which express native human B1 receptors after induction with human IL-1; Coriell Institute; host or cells: IMR-90 human foetal lung fibroblasts, induced with human IL-1
T2 sequence (P46663 1-353): T1 sequence (P46663 1-353)
The assay can be described thus: Calcium flux assay (FLIPR) with IMR-90 human foetal lung fibroblasts after IL-1 induction. The following applies: IMR-90 fibroblasts induced with human IL-1; 0.1% BSA in assay buffer; agonist Lys-(Des-Arg)-Bradykinin at EC90; read-out: hB1 IC50 IMR90. Type of assay: cell-based. The procedure:
Calcium Flux Assay (FLIPR) with Human Fibroblasts for Bradykinin B1 Receptor Antagonist (hB1 IMR-90 IC50)
The Calcium flux Assay was carried out utilising IMR-90 human foetal lung fibroblasts (American Type Culture Collection, Rockville, Md.; and Coriell Institute, Camden, N.J.), which express native human B1 receptors after induction with human IL-1[…].
The fibroblasts were cultured in complete growth media comprised of Dulbecco's modified Eagle's medium (DMEM; Sigma) containing 10% foetal bovine serum, 4 mM L-glutamine, and 1% nonessential amino acids. The cells were maintained in a humidified atmosphere with 5% CO2 at 37° C. and were sub-cultured at a ratio of 1:3, every other day.
For the assay, IMR-90 fibroblasts were harvested using TrypLE Express (GIBCO/Invitrogen) and seeded into 384-well plates (Corning Cellbinding Surface, Cat. 3683) at a density of 15000 cells/well. The following day, cells were treated with 0.35 ng/mL human IL-1[…] in 10% FBS/MEM for 3 h to up-regulate B1 receptors. Induced cells were loaded with fluorescent calcium indicator by incubation with 2.5 μM Fluo-4/AM (Invitrogen) at 37° C., 5% CO2 for 2 h in the presence of 2.5 mM probenecid in 1% FBS/MEM. Extracellular dye was removed by washing with assay buffer (2.5 mM probenecid and 0.1% BSA in 20 mM HEPES/HBSS without bicarbonate or phenol red, pH 7.5). Example compounds were assayed at 8 concentrations in triplicate. After addition of example compounds to the cell plate and incubation for 30 min at 28° C., the addition of B1 agonist Lys-(Des-Arg)-Bradykinin (Bachem, Brackley) at a final concentration of EC90 was carried out on the FLIPR instrument while continuously monitoring Ca^2+-dependent fluorescence at 538 nm. A peptide antagonist Lys-(Des-Arg-Leu)-Bradykinin (Bachem, Brackley) at 20 μM was used to determine the full inhibition as control. IC50 values were determined by the same way described for the FLIPR assay with recombinant cells.

The IC50 is the concentration at which inhibition is half-maximal.

Where two headings read alike, the source gives them in different places.

`O=C(O)c1cc(NC(=O)C2CC2c2ccc(Cl)cc2)cc(F)c1-c1cnn(C2CCC2)c1` (racemic) [Example 2, 5-({[2-(4-chlorophenyl)cyclopropyl]carbonyl}amino)-2-(1-cyclobutyl-1H-pyrazol-4-yl)-3-fluorobenzoic acid]: the 50% inhibitory concentration (IC50) on human B1 receptor (absence of 0.1% BSA in assay buffer, read-out: hB1 free IC50) is 22 nM; at human B1 receptor (presence of 0.1% BSA in assay buffer, read-out: hB1 IC50) it was 78 nM; in assay [1], 66 nM.

For the origin of these results see patent US20190177279A1, “CARBOXYLIC ACID AROMATIC 1,2-CYCLOPROPYLAMIDES” (Bayer Pharma Aktiengesellschaft, priority 2017, published 2019).
